Source: patent US20240124491A1, “METHODS AND COMPOUNDS FOR TREATING FRIEDREICH'S ATAXIA” (Design Therapeutics, Inc., priority 2021, published 2024)

tested on: human FXN; assay: EC50 assay: FXN mRNA expression by qRT-PCR in GM15850 cells after 48 hrs compound treatment; type: cell-based; settings: Homo sapiens, 48 hrs incubation, hFXN expression normalized to hGAPDH (qRT-PCR), read-out: EC50 WT (nM, 48 hr)
Description: Cell culture: Cells were cultured in RPMI1640 medium+15% FBS. Cells were maintained at a density between 2e5/mL and 1e6/mL. Cells were centrifuged, resuspended in fresh medium, counted and plated at 150,000 cells per well in 100 uL in a non-coated, flat bottom tissue culture plate.
Compound treatment: 10 mM stock solution of FA GeneTAC was diluted 1:10 in DMSO followed by a 1:100 dilution in growth medium. Working solution was then further diluted to 10× desired final concentration of 150 nM. Compound was then diluted at a 1:3 ratio into growth medium containing 0.01% DMSO. 5-point, 3-fold dose response curve was generated. 11 μL of 1OX compound was added to wells containing 100 μL cell suspension of GM15850. 11 μL growth medium containing 0.01% DMSO was added to all wells not treated with FA GeneTAC. Cells were allowed to incubate for 48 hrs prior to cell lysis using guanidine isothiocyanate solution.
RNA isolation: Total RNA was isolated and purified in 384-well column filter plates using chaotropic salt.
qRT-PCR: qRT-PCR reactions were assembled using AgPath-ID reagents (Thermo Fisher) using 6 uL mastermix and 4 μL RNA. qRT-PCR TaqMan primer probe sets against human FXN (Assay ID Hs01075496_m1) and human GAPDH (Assay ID Hs00266705_g1) were used to measure the intended targets. qRT-PCR was run on the ThermoFisher QuantStudio 6 PRO instrument using the manufacturer's recommended cycling conditions.
Data analysis: qPCR data was analyzed using Thermo Fisher Design and Analysis software. Data was exported to Excel and hFXN expression was normalized to hGAPDH expression
A<100 nM; B is 100 nM to 500 nM; C>500 nM.

Structure (SMILES)	EC50
Cc1sc2c(c1C)C(c1ccc(Cl)cc1)=N[C@@H](CC(=O)N1CCC(C#CC#CC3CCN(CCOCCNC(=O)CCNC(=O)c4nc(NC(=O)CCNC(=O)c5cc(NC(=O)c6nc(NC(=O)CCNC(=O)c7cc(NC(=O)c8nccn8C)cn7C)cn6C)cn5C)cn4C)CC3)CC1)c1nnc(C)n1-2 [Compound 160]	< 100 nM
Cc1sc2c(c1C)C(c1ccc(Cl)cc1)=N[C@@H](CC(=O)N1CCC(C#CC#CCNC(=O)CCNC(=O)c3nc(NC(=O)CCNC(=O)c4cc(NC(=O)c5nc(NC(=O)CCNC(=O)c6cc(NC(=O)c7nccn7C)cn6C)cn5C)cn4C)cn3C)CC1)c1nnc(C)n1-2 [Compound 164]	> 500 nM
Cc1sc2c(c1C)C(c1ccc(Cl)cc1)=N[C@@H](CC(=O)NC1CCN(CCOCCOCCOCCN3CCN(CC4CCN(CCOCCNC(=O)CCNC(=O)c5nc(NC(=O)CCNC(=O)c6cc(NC(=O)c7nc(NC(=O)CCNC(=O)c8cc(NC(=O)c9nccn9C)cn8C)cn7C)cn6C)cn5C)CC4)CC3)CC1)c1nnc(C)n1-2 [Compound 33]	> 500 nM
Cc1sc2c(c1C)C(c1ccc(Cl)cc1)=N[C@@H](CC(=O)NC1CCN(C3CCN(CCOCCOCCOCCOCCOCCOCCOCCNC(=O)CCNC(=O)c4nc(NC(=O)CCNC(=O)C5=CC(NC(=O)c6nc(NC(=O)CCNC(=O)c7cc(NC(=O)c8nccn8C)cn7C)cn6C)CN5C)cn4C)CC3)CC1)c1nnc(C)n1-2 (stereo partly shown) [Compound 90]	100 to 500 nM
Cc1sc2c(c1C)C(c1ccc(Cl)cc1)=N[C@@H](CC(=O)Nc1ccc(N3CCC(N4CCN(CCOCCOCCOCCOCCOCCOCCNC(=O)CCNC(=O)c5nc(NC(=O)CCNC(=O)c6cc(NC(=O)c7nc(NC(=O)CCNC(=O)c8cc(NC(=O)c9nccn9C)cn8C)cn7C)cn6C)cn5C)CC4)CC3)nc1)c1nnc(C)n1-2 [Compound 124]	< 100 nM
Cc1sc2c(c1C)C(c1ccc(Cl)cc1)=N[C@@H](CC(=O)N1CCN(CCOCCOCCOCCN3CCN(CCOCCOCCOCCNC(=O)CCNC(=O)c4nc(NC(=O)CCNC(=O)c5cc(NC(=O)c6nc(NC(=O)CCNC(=O)c7cc(NC(=O)c8nccn8C)cn7C)cn6C)cn5C)cn4C)CC3)CC1)c1nnc(C)n1-2 [Compound 27]	> 500 nM
Cc1sc2c(c1C)C(c1ccc(Cl)cc1)=N[C@@H](CC(=O)N[C@H]1CC[C@@H](N(C)CCOCCOCCOCCN3CCN(CCOCCOCCOCCNC(=O)CCNC(=O)c4nc(NC(=O)CCNC(=O)C5=CC(NC(=O)c6nc(NC(=O)CCNC(=O)c7cc(NC(=O)c8nccn8C)cn7C)cn6C)CN5C)cn4C)CC3)CC1)c1nnc(C)n1-2 (stereo partly shown) [Compound 86]	100 to 500 nM
Cc1cc(F)cc(C)c1Oc1ccc(C(C)(C)O)cc1-c1cn(C)c(=O)c2[nH]c(C(=O)Nc3ccc(OCCOCCOCCOCCOCCOCCOCCOCCOCCOCCNC(=O)CCNC(=O)c4nc(NC(=O)CCNC(=O)c5cc(NC(=O)c6nc(NC(=O)CCNC(=O)c7cc(NC(=O)c8nccn8C)cn7C)cn6C)cn5C)cn4C)cc3)cc12 [Compound 195]	< 100 nM
Cc1sc2c(c1C)C(c1ccc(Cl)cc1)=N[C@@H](CC(=O)NC1CCN(C3CN(CCOCCOCCOCCOCCOCCOCCOCCNC(=O)CCNC(=O)c4nc(NC(=O)CCNC(=O)c5cc(NC(=O)c6nc(NC(=O)CCNC(=O)c7cc(NC(=O)c8nccn8C)cn7C)cn6C)cn5C)cn4C)C3)CC1)c1nnc(C)n1-2 [Compound 89]	< 100 nM
COc1ccc2c(c1)C(c1ccc(Cl)cc1)=N[C@@H](CC(=O)NC1CCN(CCOCCOCCOCCN3CCN(CC4CCN(CCOCCNC(=O)CCNC(=O)c5nc(NC(=O)CCNC(=O)c6cc(NC(=O)c7nc(NC(=O)CCNC(=O)c8cc(NC(=O)c9nccn9C)cn8C)cn7C)cn6C)cn5C)CC4)CC3)CC1)c1nnc(C)n1-2 [Compound 34]	> 500 nM
Cc1sc2c(c1C)C(c1ccc(Cl)cc1)=N[C@@H](CC(=O)Nc1ccc(C#CC#CCNCCOCCOCCOCCOCCNC(=O)CCNC(=O)c3nc(NC(=O)CCNC(=O)c4cc(NC(=O)c5nc(NC(=O)CCNC(=O)c6cc(NC(=O)c7nccn7C)cn6C)cn5C)cn4C)cn3C)cc1)c1nnc(C)n1-2 [Compound 16]	< 100 nM
Cc1cc(F)cc(C)c1Oc1ccc(C(C)(C)O)cc1-c1cn(C)c(=O)c2[nH]c(C(=O)NC3CCN(CC#CC#CC4CCN(CCOCCOCCNC(=O)CCNC(=O)c5nc(NC(=O)CCNC(=O)c6cc(NC(=O)c7nc(NC(=O)CCNC(=O)c8cc(NC(=O)c9nccn9C)cn8C)cn7C)cn6C)cn5C)CC4)CC3)cc12 [Compound 176]	< 100 nM
Cc1sc2c(c1C)C(c1ccc(Cl)cc1)=N[C@@H](CC(=O)N1CCC(C#CC#CCNCCOCCOCCOCCOCCOCCOCCNC(=O)CCNC(=O)c3nc(NC(=O)CCNC(=O)c4cc(NC(=O)c5nc(NC(=O)CCNC(=O)c6cc(NC(=O)c7nccn7C)cn6C)cn5C)cn4C)cn3C)CC1)c1nnc(C)n1-2 [Compound 78]	< 100 nM
Cc1cc(F)cc(C)c1Oc1ccc(C(C)(C)O)cc1-c1cn(C)c(=O)c2[nH]c(C(=O)N3CCC(N4CCN(CCOCCOCCOCCOCCC(=O)NCCCN(CCCNC(=O)CCNC(=O)c5nc(NC(=O)CCNC(=O)c6cc(NC(=O)c7nc(NC(=O)CCNC(=O)c8cc(NC(=O)c9nccn9C)cn8C)cn7C)cn6C)cn5C)CC(F)(F)F)CC4)CC3)cc12 [Compound 170]	> 500 nM
CC(=O)N1c2ccc(-c3ccc(C(=O)N4CCC(C#CC#CC5CCN(CCOCCOCCOCCOCCOCCOCCNC(=O)CCNC(=O)c6nc(NC(=O)CCNC(=O)c7cc(NC(=O)c8nc(NC(=O)CCNC(=O)c9cc(NC(=O)c%10nccn%10C)cn9C)cn8C)cn7C)cn6C)CC5)CC4)cc3)cc2C(Nc2ccc(Cl)cc2)C[C@@H]1C (stereo partly shown) [Compound 150]	< 100 nM
COCCOCCOCCOCCOCCOCCOCCOCCN(CCCCCn1cc(NC(=O)c2nc(NC(=O)CCNC(=O)c3cc(NC(=O)c4nccn4C)cn3C)cn2C)cc1C(=O)NCCC(=O)Nc1cn(C)c(C(=O)NCCC(=O)NCCOCCOCCOCCOCCOCCOCCOCCOCCOc2ccc(NC(=O)c3cc4c(-c5cc(C(C)(C)O)ccc5Oc5c(C)cc(F)cc5C)cn(C)c(=O)c4[nH]3)cc2)n1)CCOCCOCCOCCOCCOCCOCCOCCOC [Compound 242]	< 100 nM
Cc1c(C(=O)N2CCC(C#CC#CC3CCN(CCOCCOCCOCCOCCNC(=O)CCNC(=O)c4nc(NC(=O)CCNC(=O)c5cc(NC(=O)c6nc(NC(=O)CCNC(=O)c7cc(NC(=O)c8nccn8C)cn7C)cn6C)cn5C)cn4C)CC3)CC2)sc2c1C(c1ccc(Cl)cc1)=N[C@@H](CC(=O)NCCN1CCN(C)CC1)c1nnc(C)n1-2 [Compound 134]	100 to 500 nM
Cc1sc2c(c1C)C(c1ccc(Cl)cc1)=N[C@@H](CC(=O)N1CC(N3CCN(CCOCCOCCOCCOCCOCCOCCNC(=O)CCNC(=O)c4nc(NC(=O)CCNC(=O)c5cc(NC(=O)c6nc(NC(=O)CCNC(=O)c7cc(NC(=O)c8nccn8C)cn7C)cn6C)cn5C)cn4C)CC3)C1)c1nnc(C)n1-2 [Compound 62]	100 to 500 nM
Cc1sc2c(c1C)C(c1ccc(Cl)cc1)=N[C@@H](CC(=O)N1CCC(C#CC#CC3CCN(CCOCCOCCOCCOCCOCCNC(=O)CCNC(=O)c4nc(NC(=O)CCNC(=O)c5cc(NC(=O)c6nc(NC(=O)CCNC(=O)c7cc(NC(=O)c8nccn8C)cn7C)cn6C)cn5C)cn4C)CC3)CC1)c1nnc(C)n1-2 [Compound 140]	< 100 nM
Cc1cc(F)cc(C)c1Oc1ccc(C(C)(C)O)cc1-c1cn(C)c(=O)c2[nH]c(C(=O)Nc3ccc(OCCOCCOCCOCCOCCOCCOCCOCCOCCNC(=O)CCNC(=O)c4nc(NC(=O)CCNC(=O)c5cc(NC(=O)c6nc(NC(=O)CCNC(=O)c7cc(NC(=O)c8nccn8C)c[nH]7)cn6C)c[nH]5)cn4C)cc3)cc12 [Compound 224, N-(5-{[2-({2-[(2-{[26-(4-{4-[2-(4-fluoro-2,6-dimethylphenoxy)-5-(2-hydroxypropan-2-yl)phenyl]-6-methyl-7-oxo-1H-pyrrolo[2,3-c]pyridine-2-amido}phenoxy)-3,6,9,12,15,18,21,24-octaoxahexacosan-1-yl]carbamoyl]ethyl)carbamoyl]-1-methylimidazol-4-yl]carbamoyl)ethyl]carbamoyl]-1H-pyrrol-3-yl)-1-methyl-4-(3-{[4-(1-methylimidazole-2-amido)-1H-pyrrol-2-yl]formamido]propanamido)imidazole-2-carboxamide]	< 100 nM
Cc1cc(F)cc(C)c1Oc1ccc(C(C)(C)O)cc1-c1cn(C)c(=O)c2[nH]c(C(=O)Nc3ccc(OCCOCCOCCOCCOCCOCCOCCOCCOCCNC(=O)CCNC(=O)c4nc(NC(=O)CCNC(=O)c5cc(NC(=O)c6nc(NC(=O)CCN)cn6C)cn5C)cn4C)cc3)cc12 [Compound 199, 4-(3-aminopropanamido)-N-(5-{[2-({2-[(2-{[26-(4-{4-[2-(4-fluoro-2,6-dimethylphenoxy)-5-(2-hydroxypropan-2-yl)phenyl]-6-methyl-7-oxo-1H-pyrrolo[2,3-c]pyridine-2-amido}phenoxy)-3,6,9,12,15,18,21,24-octaoxahexacosan-1-yl]carbamoyl}ethyl)carbamoyl]-1-methylimidazol-4-yl}carbamoyl)ethyl]carbamoyl}-1-methylpyrrol-3-yl)-1-methylimidazole-2-carboxamide]	> 500 nM
COc1ccc2c(c1)C(c1ccc(Cl)cc1)=N[C@@H](CC(=O)N1CCC(N3CCN(CCOCCOCCOCCOCCOCCOCCNC(=O)CCNC(=O)c4nc(NC(=O)CCNC(=O)c5cc(NC(=O)c6nc(NC(=O)CCNC(=O)c7cc(NC(=O)c8nccn8C)cn7C)cn6C)cn5C)cn4C)CC3)CC1)c1nnc(C)n1-2 [Compound 52]	> 500 nM
